Patent publication US6093732A, “4-hydroxyquinoline-3-carboxamides and hydrazides as antiviral agents” (Pharmacia & Upjohn Company, priority 1998, dated 2000)
Counter-ions that a name gives are not always drawn.

Molecular target: T1, HCMV polymerase (Human cytomegalovirus, UniProt P08546)
T1 construct: made in house; host or cells: recombinant baculovirus-infected SF-9 cells
Assay: HCMV polymerase scintillation proximity assay (SPA), modified version
Type: biochemical
Details: CMV polymerase; Table 1; modified assay with 4.5 mM DTT, compounds in 100% DMSO; read-out: Antiviral Selective Polymerase IC50 Values, CMV
Description: The HCMV polymerase assay is performed using a scintillation proximity assay (SPA) as described in several references, such as N. D. Cook, et al., Pharmaceutical Manufacturing International, pages 49-53 (1992); K. Takeuchi, Laboratory Practice, September issue (1992); U.S. Pat. No. 4,568,649 (1986); which are incorporated by reference herein. Reactions are performed in 96-well plates. The assay is conducted in 100 μl volume with 5.4 mM HEPES (pH 7.5), 11.7 mM KCl, 4.5 mM MgCl2, 0.36 mg/ml BSA, and 90 nM ^3 H-dTTP. Assays are run with and without CHAPS, (3-[(3-Cholamidopropyl)-dimethylammonio]-1-propane-sulfonate) at a final concentration of 2 mM. HCMV polymerase is diluted in enzyme dilution buffer containing 50% glycerol, 250 mM NaCl, 10 mM HEPES (pH 7.5), 100 μg/ml BSA, and 0.01% sodium azide. The HCMV polymerase, which is expressed in recombinant baculovirus-infected SF-9 cells and purified according to literature procedures, is added at 10% (or 10 μl) of the final reaction volume, i.e., 100 μl. Compounds are diluted in 50% DMSO and 10 μl are added to each well. Control wells contain an equivalent concentration of DMSO. Unless noted otherwise, reactions are initiated via the addition of 6 nM biotinylated poly(dA)-oligo(dT) template/primer to reaction mixtures containing the enzyme, substrate, and compounds of interest. Plates are incubated in a 25° C. or 37° C. H2 O bath and terminated via the addition of 40 μl/reaction of 0.5 M EDTA (pH 8) per well. Reactions are terminated within the time-frame during which substrate incorporation is linear and varied depending upon the enzyme and conditions used, i.e., 30 min. for HCMV polymerase. Ten μl of streptavidin-SPA beads (20 mg/ml in PBS/10% glycerol) are added following termination of the reaction. Plates are incubated 10 min. at 37° C., then equilibrated to room temperature, and counted on a Packard Topcount. Linear regressions are performed and IC50 's are calculated using computer software.
A modified version of the above HCMV polymerase assay is performed as described above, but with the following changes: Compounds are diluted in 100% DMSO until final dilution into assay buffer. In the previous assay, compounds are diluted in 50% DMSO. 4.5 mM dithiotherotol (DTT) is added to the polymerase buffer. […] Other viral polymerase assays are performed using procedures similar to those described above.

T1 sequence (P08546 whole entry): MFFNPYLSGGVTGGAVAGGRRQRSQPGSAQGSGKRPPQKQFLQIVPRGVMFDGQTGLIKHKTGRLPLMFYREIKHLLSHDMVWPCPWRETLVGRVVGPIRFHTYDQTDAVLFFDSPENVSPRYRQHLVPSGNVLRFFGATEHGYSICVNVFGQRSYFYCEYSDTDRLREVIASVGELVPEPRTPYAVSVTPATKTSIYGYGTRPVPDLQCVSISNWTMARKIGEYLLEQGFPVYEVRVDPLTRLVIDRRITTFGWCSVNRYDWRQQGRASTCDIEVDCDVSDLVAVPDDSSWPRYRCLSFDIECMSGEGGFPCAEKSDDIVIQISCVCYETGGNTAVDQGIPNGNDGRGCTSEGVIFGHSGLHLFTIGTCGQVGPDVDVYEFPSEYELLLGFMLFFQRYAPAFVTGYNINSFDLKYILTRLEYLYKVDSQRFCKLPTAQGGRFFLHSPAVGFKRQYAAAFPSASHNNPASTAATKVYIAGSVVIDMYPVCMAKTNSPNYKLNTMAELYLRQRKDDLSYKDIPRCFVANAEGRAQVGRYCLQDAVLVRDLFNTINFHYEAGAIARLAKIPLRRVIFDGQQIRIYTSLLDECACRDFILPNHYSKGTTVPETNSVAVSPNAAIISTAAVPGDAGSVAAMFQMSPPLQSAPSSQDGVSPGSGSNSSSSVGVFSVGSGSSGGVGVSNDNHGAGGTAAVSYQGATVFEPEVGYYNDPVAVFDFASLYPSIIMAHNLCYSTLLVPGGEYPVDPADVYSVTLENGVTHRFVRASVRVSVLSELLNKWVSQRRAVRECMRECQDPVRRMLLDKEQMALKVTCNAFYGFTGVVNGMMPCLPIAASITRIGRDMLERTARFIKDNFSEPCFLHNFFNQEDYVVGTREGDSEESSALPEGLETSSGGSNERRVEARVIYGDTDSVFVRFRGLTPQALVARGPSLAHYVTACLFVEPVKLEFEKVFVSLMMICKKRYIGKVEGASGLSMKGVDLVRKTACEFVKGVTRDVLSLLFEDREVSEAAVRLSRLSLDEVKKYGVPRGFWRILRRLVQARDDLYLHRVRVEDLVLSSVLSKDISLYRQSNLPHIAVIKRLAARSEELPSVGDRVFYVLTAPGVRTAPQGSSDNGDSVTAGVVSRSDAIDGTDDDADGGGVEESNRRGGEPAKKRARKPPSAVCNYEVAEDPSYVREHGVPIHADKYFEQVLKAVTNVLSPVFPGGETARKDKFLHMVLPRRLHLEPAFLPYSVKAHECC

| SMILES | IC50 [µM] |
| --- | --- |
| COCCCc1cc(F)c2ncc(C(=O)NCc3ccc(Cl)cc3)c(O)c2c1 [Example 103, N-(4-Chlorobenzyl)-8-fluoro-4-hydroxy-6-(3-methoxypropyl)-3-quinolinecarboxamide] | 2.5 |
| O=C(NCc1ccc(Cl)cc1)c1cnc2c(F)cc(/C=C\CCO)cc2c1O [Example 104, N-(4-Chlorobenzyl)-8-fluoro-4-hydroxy-6-[(Z)-4-hydroxy-1-butenyl]-3-quinolinecarboxamide] | < 0.78 |
| N#CCCCCCc1cc(F)c2ncc(C(=O)NCc3ccc(Cl)cc3)c(O)c2c1 [Example 105, N-(4-Chlorobenzyl)-6-(5-cyanopentyl)-8-fluoro-4-hydroxy-3-quinolinecarboxamide] | 10.4 |
| O=C(NCc1ccc(Cl)cc1)c1cnc2c(F)cc(C#CCCCO)cc2c1O [Example 107, N-(4-Chlorobenzyl)-8-fluoro-4-hydroxy-6-(5-hydroxy-1-pentynyl)-3-quinolinecarboxamide] | 5.4 |
| CN(CCCc1cc(F)c2ncc(C(=O)NCc3ccc(Cl)cc3)c(O)c2c1)Cc1ccccc1 [Example 108, 6-{3-[Benzyl(methyl)amino]propyl}-N-(4-chlorobenzyl)-8-fluoro-4-hydroxy-3-quinolinecarboxamide] | 6.5 |
| COC(=O)c1cc(F)c2ncc(C(=O)NCc3ccc(Cl)cc3)c(O)c2c1 [Example 109, Methyl 3-{[(4-chlorobenzyl)amino]carbonyl}-8-fluoro-4-hydroxy-6-quinolinecarboxylate] | 11 |
| O=C(NCc1ccc(Cl)cc1)c1cnc2c(F)cc(CCCO)cc2c1O [Example 110, N-(4-Chlorobenzyl)-8-fluoro-4-hydroxy-6-(3-hydroxypropyl)-3-quinolinecarboxamide] | 0.28 |
| O=C(NCc1ccc(Cl)cc1)c1cnc2cc(CCCO)ccc2c1O [Example 111, N-(4-Chlorobenzyl)-4-hydroxy-7-(3-hydroxypropyl)-3-quinoline-carboxamide] | 2.6 |
| CCOC(=O)/C=C/c1cc(F)c2ncc(C(=O)NCc3ccc(Cl)cc3)c(O)c2c1 [Example 112, Ethyl (E)-3-(3-{[(4-chlorobenzyl)amino]carbonyl}-8-fluoro-4-hydroxy-6-quinolinyl)-2-propenoate] | 14 |
| O=C(O)/C=C/c1cc(F)c2ncc(C(=O)NCc3ccc(Cl)cc3)c(O)c2c1 [Example 113, (E)-3-(3-{[(4-Chlorobenzyl)amino]carbonyl}-8-fluoro-4-hydroxy-6-quinolinyl)-2-propenoic acid] | 10.4 |
| O=C(O)CCc1cc(F)c2ncc(C(=O)NCc3ccc(Cl)cc3)c(O)c2c1 [Example 114, 3-(3-{[(4-Chlorobenzyl)amino]carbonyl}-8-fluoro-4-hydroxy-6-quinolinyl)propanoic acid] | 2.2 |
| O=C(O)CCC#Cc1cc(F)c2ncc(C(=O)NCc3ccc(Cl)cc3)c(O)c2c1 [Example 115, 5-(3-{[(4-Chlorobenzyl)amino]carbonyl}-8-fluoro-4-hydroxy-6-quinolinyl)-4-pentynoic acid] | 6.1 |
| O=C(NCc1ccc(Cl)cc1)c1cnc2ccc3[nH]ncc3c2c1O [Example 116] | 16.5 |
| COc1cc(I)cc2c(O)c(C(=O)NCc3ccc(Cl)cc3)cnc12 [Example 117, N-(4-Chlorobenzyl)-4-hydroxy-6-iodo-8-methoxy-3-quinolinecarboxamide] | 8.7 |
| O=C(NCc1ccc(Cl)cc1)c1cnc2c(C(F)(F)F)cc(C#CCO)cc2c1O [Example 121, N-(4-Chlorobenzyl)-4-hydroxy-6-(3-hydroxy-1-propynyl)-8-(trifluoromethyl)-3-quinolinecarboxamide] | 15 |
| O=C(NCc1ccc(Cl)cc1)c1cnc2c(OC(F)(F)F)cc(C#CCO)cc2c1O [Example 122, N-(4-Chlorobenzyl)-4-hydroxy-6-(3-hydroxy-1-propynyl)-8-(trifluoromethoxy)-3-quinolinecarboxamide] | 1.8 |
| O=C(NCc1ccc(Cl)cc1)c1cnc2c(C(F)(F)F)cc(CCCO)cc2c1O [Example 123, N-(4-Chlorobenzyl)-4-hydroxy-6-(3-hydroxypropyl)-8-(trifluoromethyl)-3-quinolinecarboxamide] | 2.2 |

| SMILES | IC50 [µM] |
| --- | --- |
| CSCC#Cc1cc(F)c2ncc(C(=O)NCc3ccc(Cl)cc3)c(O)c2c1 [Example 126, N-[(4-Chlorophenyl)methyl]-8-fluoro-4-hydroxy-6-[3-(methylthio)-1-propynyl]-3-quinolinecarboxamide] | 19.7 |
| CCSCC#Cc1cc(F)c2ncc(C(=O)NCc3ccc(Cl)cc3)c(O)c2c1 [Example 127, N-[(4-Chlorophenyl)methyl]-6-[3-(ethylthio)-1-propynyl]-8-fluoro-4-hydroxy-3-quinolinecarboxamide] | 23.5 |
| CSC/C=C\c1cc(F)c2ncc(C(=O)NCc3ccc(Cl)cc3)c(O)c2c1 [Example 128, N-[(4-Chlorophenyl)methyl]-8-fluoro-4-hydroxy-6-[(1Z)-3-(methylthio)-1-propenyl]-3-quinolinecarboxamide] | 0.46 |
| CCSC/C=C\c1cc(F)c2ncc(C(=O)NCc3ccc(Cl)cc3)c(O)c2c1 [Example 129, N-[(4-Chlorophenyl)methyl]-6-[(1Z)-3-(ethylthio)-1-propenyl]-8-fluoro-4-hydroxy-3-quinolinecarboxamide] | 1 |
| CSCCCc1cc(F)c2ncc(C(=O)NCc3ccc(Cl)cc3)c(O)c2c1 [Example 130, N-[(4-Chlorophenyl)methyl]-8-fluoro-4-hydroxy-6-[3-(methylthio)propyl]-3-quinolinecarboxamide] | 1.1 |
| O=COCC#Cc1cc(F)c2ncc(C(=O)NCc3ccc(Cl)cc3)c(O)c2c1 [Example 131, 3-(3-{[(4-Chlorobenzyl)amino]carbonyl}-8-fluoro-4-hydroxy-6-quinolinyl)-2-propynyl formate] | 1.8 |
| CC(O)CCc1cc(F)c2ncc(C(=O)NCc3ccc(Cl)cc3)c(O)c2c1 (stereo not drawn) [Example 132, N-(4-Chlorobenzyl)-8-fluoro-4-hydroxy-6-(3-hydroxybutyl)-3-quinolinecarboxamide] | 0.64 |
| O=C(NCc1ccc(Cl)cc1)c1c[nH]c2ccc(/C=C\CO)cc2c1=O [Example 135, N-[(4-Chlorophenyl)methyl]-1,4-dihydro-6-[(1Z)-3-hydroxy-1-propenyl]-4-oxo-3-quinolinecarboxamide] | 0.78 |
| O=C(NCc1ccc(Cl)cc1)c1cnc2c(F)cc(/C=C\CO)cc2c1O [Example 137, N-(4-Chlorobenzyl)-8-fluoro-4-hydroxy-6-[(Z)-3-hydroxy-1-propenyl]-3-quinolinecarboxamide] | 0.6 |
| O=CCCc1cc(F)c2ncc(C(=O)NCc3ccc(Cl)cc3)c(O)c2c1 [Example 139, N-(4-Chlorobenzyl)-8-fluoro-4-hydroxy-6-(3-oxopropyl)-3-quinolinecarboxamide] | 1.9 |
| O=C(NCc1ccc(Cl)cc1)c1cnc2c(F)cc(CO)cc2c1O [Example 141, N-(4-Chlorobenzyl)-8-fluoro-4-hydroxy-6-(hydroxymethyl)-3-quinolinecarboxamide] | 10.1 |
| O=C(NCc1ccc(Cl)cc1)c1cnc2c(F)cc(C#CCF)cc2c1O [Example 143, N-(4-Chlorobenzyl)-8-fluoro-6-(3-fluoro-1-propynyl)-4-hydroxy-3-quinolinecarboxamide] | 3 |
| CC(C)C(NC(=O)OC(C)(C)C)C(=O)OCCCc1cc(F)c2ncc(C(=O)NCc3ccc(Cl)cc3)c(O)c2c1 (stereo not drawn) [Example 146, 3-(3-{[(4-Chlorobenzyl)amino]carbonyl}-8-fluoro-4-hydroxy-6-quinolinyl)propyl 2-[(tert-butoxycarbonyl)amino]-3-methylbutanoate] | 38.7 |
| O=C(CN1CCOCC1)OCCCc1cc(F)c2ncc(C(=O)NCc3ccc(Cl)cc3)c(O)c2c1 [Example 147, 3-(3-([(4-Chlorobenzyl)amino]carbonyl}-8-fluoro-4-hydroxy-6-quinolinyl)propyl 2-morpholinoacetate] | 7 |
| CC(C)C(N)C(=O)OCCCc1cc(F)c2ncc(C(=O)NCc3ccc(Cl)cc3)c(O)c2c1 (stereo not drawn) [Example 149, 3-(3-{[(4-Chlorobenzyl)amino]carbonyl}-8-fluoro-4-hydroxy-6-quinolinyl)propyl 2-amino-3-methylbutanoate] | 6.3 |
| O=C(Nc1ccccc1)OCC#Cc1cc(F)c2ncc(C(=O)NCc3ccc(Cl)cc3)c(O)c2c1 [Example 150, 3-(3-{[(4-Chlorobenzyl)amino]carbonyl}-8-fluoro-4-hydroxy-6-quinolinyl)-2-propynyl phenylcarbamate] | 4.8 |
